Assay results as given in patent US11883680B2, “Method and apparatus for tightening skin and other tissues” (The General Hospital Corporation, priority 2016, dated 2024).

System: human skin
Test: mechanical testing of skin sample sites with a tensiometer (elastic modulus, peak load)
Conditions: fully treated (full thickness needling + 0.1% Rose Bengal in saline + green light LED array) vs untreated and needled-only skin
Procedure: Additionally, mechanical testing was performed on sample sites using a tensiometer to measure elastic modulus before and after treatment. The elastic modulus and peak load were recorded on samples that were (1) untreated (2) partially treated (needled only), and (3) fully treated (needled plus agent application and irradiation). Full treatment included full thickness needling of the skin surface followed by application of a 0.1% solution of Rose Bengal in saline and irradiation with a multi-light-emitting LED diode array that delivered green light to the sample surface.

Q: With `O=C([O-])c1c(Cl)c(Cl)c(Cl)c(Cl)c1-c1c2cc(I)c(=O)c(I)c-2oc2c(I)c([O-])c(I)cc12.[Na+].[Na+]` [Rose Bengal] as the compound, how does the “increase in peak load” value read?
A: three-fold

Q: And the “increase in the elastic modulus” value?
A: five-fold
